Laboratory results taken from ChEMBL document CHEMBL1122659, “Synthesis of some phosphonates with antiherpetic activity” (1984).
Active and inactive are the calls of the source. No cut-off for these calls is given here.

Species: Oryctolagus cuniculus
Assay: In vitro ability to inhibit the herpes HSV-2 virus; Inactive
Type: functional, organism-based
Conditions: herpes simplex virus

SMILES | MIC
CCOP(=O)(CCCOc1ccc(OC)cc1Cl)OCC | inactive
CCOP(=O)(CCOc1ccc(O)cc1)OCC | inactive
CCOP(=O)(CCOc1ccc(OC(C)=O)cc1)OCC | inactive
